Paper PMC11926788, “Effect of SSR504734, a Selective Glycine Transporter Type 1 Inhibitor, on Seizure Thresholds, Neurotransmitter Levels, and Inflammatory Markers in Mice” (ACS Chemical Neuroscience, 2025)
Where a name gives a salt, the structure may show the parent alone.

Legend:
[1] = system: tonic hindlimb extension in the MEST test in mice; test: Maximal electroshock seizure threshold (MEST) test; format: in vivo
Method: A sinusoidal current alternation was delivered via saline-soaked transcorneal electrodes. Before stimulation, an ocular anesthetic (1% tetracaine hydrochloride solution obtained from Sigma-Aldrich, St. Louis, MO, USA) was administered to each eye of the mice. During stimulation, the mice were manually immobilized in a hand for 3–5 s and immediately relocated to a transparent box for behavioral observation after the stimulation. Hindlimb tonic extension was taken as an end point. Two experimental approaches were employed: (1) the maximal electroshock seizure threshold (MEST) test at varied current intensities and (2) the maximal electroshock (MES) test at a fixed current intensity.
In the MEST test, seizure thresholds were determined using the “up-and-down” method described by Kimball et al.[28] […] Each mouse was stimulated only once.

[2] = system: glutamate, GABA, adenosine, glycine concentrations in cortex, hippocampus, brainstem; test: Determination of neurotransmitters in brain structures (LC-MS/MS, HPLC-FLD); format: in vivo, mice
Method: Mice were administered with SSR504734 or saline acutely or repeatedly for 14 days and subjected to maximal electroshock seizures 60 min after treatment. Immediately following seizure induction, the animals were decapitated. Brains were removed from the skull and washed with ice-cold 0.9% NaCl. Cortex, hippocampus, and brainstem were isolated by microdissection and collected into Eppendorf tubes. Samples were frozen in liquid nitrogen and kept at −80 °C until the day of analysis.
Adenosine, GABA, and glutamate concentrations in mouse cortex, brainstem, and hippocampus were determined using an LC-MS/MS method. Stock solutions of GABA, adenosine, glutamate, and their internal standards (ISs), i.e., adenosine-13C5, GABA-d6, and glutamate-d5 (Toronto Research Chemicals Inc., Canada), were prepared using methanol for GABA and its IS and deionized water for adenosine, glutamate, and their ISs and stored at 4 °C. The stock solutions of GABA, adenosine, and glutamate were then appropriately diluted with acetonitrile/water 1:1 (v/v) solution to achieve various concentration levels required for the experiments. Brain tissue samples were homogenized using a Bead Ruptor Elite, bead mill homogenizer (Omni International, USA) with 90 μL of deionized water per 10 mg of tissue. The resulting homogenates were further diluted at 1:10 to 1:100 (v/v) ratios (depending on the expected analyte concentration) with acetonitrile/water 1:1 (v/v) solution. […] The supernatants were then placed in autosampler vials.
Analyte separation was performed on an Exion LC AC system (Sciex, USA) coupled with a QTRAP 4500 triple quadrupole MS instrument (Sciex, USA). A 0.2 to 2 μL aliquot of sample was injected via an autosampler maintained at 15 °C into an XBridge HILIC (Waters, Ireland) analytical column (2.1 × 150 mm, 3.5 μm) with the column oven set at 25 °C.
MS detection employed electrospray ionization (ESI) in positive ion mode. According to the results of flow-injection analysis, curtain gas was set at 30 psi, ion spray voltage at 5500 V, and the source temperature at 450 °C, with ion spray gases 1 and 2 at 50 and 40 psi, respectively.
Data acquisition and processing were conducted with Analyst version 1.7 software. The calibration curves were constructed by plotting the ratio of the peak areas of the target analytes to those of their respective ISs against the concentrations of the analytes. These curves were derived using a weighted linear regression analysis method (1/x). Due to the availability of stable isotope-labeled standards and the high endogenous concentrations of adenosine, glutamate, and GABA in the brain tissue, the calibrators were prepared in water.
Glycine concentrations in brain structures were analyzed by using high-performance liquid chromatography with fluorescence detection (HPLC-FLD). A stock solution of glycine (20 mg/mL) was prepared in water and diluted with the same solvent to prepare working standard solutions at the concentration range of 0.2–20 μg/mL. The homogenates were obtained as described above, and they were centrifuged before analysis for 5 min at 10,000 rpm (Eppendorf miniSpin centrifuge). To prepare samples for analysis, 2 μL (for brainstem) or 5 μL (for the remaining structures) of homogenate supernatants was transferred to Eppendorf tubes and diluted with water to 20 μL. […] The reaction mixture was vortexed for 15 s, spinned down to make sure that all the sample is at the bottom of the tube, and incubated for 3 min at room temperature in darkness. The aliquots of 5 μL were injected into the column. […] The EZChrom Elite Client/Server v. 3.2 software was used for data collection and analysis. […] The mobile phase consisted of methanol (solvent A) and 0.05 M phosphate buffer adjusted to pH = 4.5 with phosphoric acid 30% (solvent B) and run in a gradient mode at a flow rate of 1 mL/min.

[3] = system: human serum albumin and alpha-1-acid glycoprotein; test: Plasma protein binding (TRANSIL XL PPB test); format: in vitro ADME; settings: ± SD, fraction bound to plasma proteins, read-out: PPB fb (converted)
Method: (§1) A series of in vitro ADME-Tox tests were performed for SSR504734 in order to estimate its drugability. The ADME-Tox parameters including permeability, plasma protein binding, metabolic stability, neurotoxicity, and hepatotoxicity were carried out as described previously.[31],[32] The ability of SSR504734 to penetrate through the biological membrane by passive diffusion was estimated by the Gentest Precoated PAMPA Plate System (Corning, Tewksbury, MA) and expressed as the permeability coefficient (Pe). The protein binding analysis was performed by using the commercial TRANSIL^XL PPB test, which mimics in vitro physiological plasma conditions where human serum albumin (HAS) and alpha-1-acid glycoprotein AGP are present in a 24:1 ratio. The human metabolism of SSR504734 was studied using human liver microsomes (HLMs) provided by Sigma-Aldrich. The hepatotoxicity and neurotoxicity were estimated in cellular models with the use of hepatoma HepG2 and neuroblastoma SH-SY5Y cell lines to perform the preliminary safety tests. The cells were incubated with SSR504734 at the concentration range of 0.1–100 μM. 1 μM cytostatic drug doxorubicin (DX) was used as the reference.

[4] = Neurotoxicity, SH-SY5Y cell viability; format: cell-based; settings: human, neuroblastoma SH-SY5Y cells; 50 μM, 72 h
Method: as §1
Figure 8 Effect of cytostatic drug doxorubicin (DX) and SSR504734 on (A) hepatoma HepG2 and (B) neuroblastoma SH-SY5Y cell lines viability after 72 h of incubation at 37 °C, 5% CO2. Data are expressed as means ± SD. Statistical analysis: ****p < 0.0001 vs negative control −1% DMSO in growth media (one-way ANOVA, followed by Dunnett’s post hoc test).
Figure S8. The effect of cytostatic drug doxorubicin and SSR504734 on (A) hepatoma
HepG2 and (B) neuroblastoma SH-SY5Y cell line viability after 72 h of incubation at 37 °C,
5% CO2. The IC50 values were calculated by GraphPad Prism 8.0.
(1 picture or pasted object on this page, not shown here)

[5] = acute treatment i.p., nonstimulated (sham) mice

## O=C(NC(c1ccccc1)C1CCCCN1)c1cccc(C(F)(F)F)c1Cl [SSR504734, 2-chloro-N-[(S)-phenyl[(2S)-piperidin-2-yl]methyl]-3-trifluoromethyl benzamide monohydrochloride]
[1]; 30 mg/kg i.p., 60 and 120 min after administration, vs control
  fold increase of seizure threshold (CS50), time-course: ~1.3 fold
[1]; 30 mg/kg i.p., at 30, 60, 120 and 240 min
  effect on seizure threshold (CS50), time-course: significantly raised the seizure threshold
[1]; 14-day repeated treatment, 30 mg/kg i.p.
  fold increase in CC50 value: 1.2 fold
[1]; 14-day repeated treatment, 3 and 10 mg/kg i.p.
  effect on seizure threshold: no changes in seizure threshold
[1]; acute, 10 mg/kg i.p., 60 min before test
  effect on threshold for tonic hindlimb extension: ineffective
[1]; acute, 30 mg/kg i.p., 60 min before test
  fold increase of current intensity necessary to induce hindlimb tonus: 1.2 fold
[1]; acute, 50 mg/kg i.p., 60 min before test
  fold increase of current intensity necessary to induce hindlimb tonus: 1.6 fold
[2]; 14-day treatment, nonstimulated (sham) and MES-stimulated mice
  glutamate, GABA, adenosine, glycine concentrations in brain structures: No alterations
[2]; acute treatment i.p.
  GABA and glycine concentrations in any of the studied brain regions: did not alter
  adenosine concentrations in cortex and hippocampus: no changes
  glutamate concentration in cortex and hippocampus: No alterations
[2]; acute treatment i.p., mice subjected to the MES test
  glutamate concentration in the brainstem: no statistically significant changes
[2]; [5]
  fold decrease of adenosine concentration in the brainstem: ~2 fold
  glutamate concentration in the brainstem: significant decrease
[3]
  fraction unbound: 0.013
[4]
  viability at 72 h, 50 µM: ~30%
